The record followed here is patent US11731964B2, “Benzamide antibacterial agents” (Purdue Research Foundation, priority 2018, dated 2023).

Assay type in all cases: cell-based
Assay [1] relates to S. aureus. Kind of assay: Screening of compounds for growth inhibition of S. aureus at 16 μg/mL (OD600). The note with it: compound at 16 μg/mL, 24 hours, compared to DMSO control. The method, then: Library compounds and analogs of F6 were dissolved in DMSO at 10 mg/mL. S. aureus was cultured in Mueller Hinton Broth to early exponential phase at which point culture aliquots were incubated with compounds at 16 μg/mL or DMSO in duplicates. The culture was continued at 37° C. for 24 hours. Aliquots (100 μL) of the cultures were dispensed into clear 96 well microtiter plates and OD600 was recorded. Percent normalized OD600 was obtained by using the equation [formula] wherein for a given compound, X is the OD600 of culture with the compound, Xo is that of media only and XT is the OD600 of the DMSO control.

Assay [2] concerns VRE (E. faecalis) ATCC 51575. Kind of assay: MIC, broth microdilution. The note with it: VRE (E. faecalis) ATCC 51575; read-out: MIC. The method, then: (§1) Bacteria were cultured in cation-adjusted Mueller Hinton Broth (for strains in Tables 1 and 4) or Brain Heart Infusion broth (for Enterococcus faecium) or Tryptic Soy Broth (all other bacteria) in a 96-well plate at 37° C. for at least 20 hours. The MIC was classified as the lowest concentration where no visual growth of bacteria was observed. The minimum bactericidal concentration (MBC) was tested by spotting 4 μL from wells with no growth onto Tryptic Soy Agar (TSA) plates. Plates were incubated at 37° C. for at least 18 hours before recording the MBC.

The next assay relates to E. faecalis ATCC 29212. The assay is described as follows: MIC, broth microdilution. The following applies: Enterococcus faecalis, ATCC29212; E. faecalis ATCC 29212; read-out: MIC. The method, then: as §1
A general note: Dilution methods test growth across graded concentrations, often in twofold steps.

For another assay, the system named is S. aureus ATCC 25923. Kind of assay: MIC, broth microdilution. The following applies: Staphylococcus aureus, ATCC25923; S. aureus ATCC 25923; read-out: MIC. As to the method:
as §1

Assay [3] concerns L. monocytogenes ATCC 19115. Kind of assay: MIC, broth microdilution. The note with it: Listeria monocytogenes, ATCC19115; L. monocytogenes ATCC 19115; read-out: MIC. As to the method: as §1
In the next assay the test system is MRSA ATCC 33592. Kind of assay: MIC, broth microdilution. The following applies: Staphylococcus aureus; MRSA ATCC 33592; read-out: MIC. The method, then:
as §1

For assay [4], the system named is C. difficile NR-32883 (P2). Kind of assay: Clostridium difficile inhibition analysis. The note with it: for Antibacterial activity: Table 7, C. difficile NR-32883 (P2); for Clostridium difficile inhibition: Table 6, P2.
Assay [5] has as its system Clostridium difficile ATCC BAA 1801. Kind of assay: Clostridium difficile inhibition analysis. The following applies: for Antibacterial activity: Table 7, C. difficile ATCC BAA 1801; for Clostridium difficile inhibition: Table 6, ATCC BAA 1801.
The subject of assay [6] is C. difficile NR-32895 (P19). The assay is described as follows: Clostridium difficile inhibition analysis. The note with it: for Antibacterial activity: Table 7, C. difficile NR-32895 (P19); for Clostridium difficile inhibition: Table 6, P19.
Assay [7] relates to C. difficile NR-13435 (isolate 9). The assay is described as follows: Clostridium difficile inhibition analysis. The following applies: for Antibacterial activity: Table 7, C. difficile NR-13435 (isolate 9); for Clostridium difficile inhibition: Table 6, I9.
The subject of assay [8] is C. difficile NR-13432 (isolate 6). Kind of assay: Clostridium difficile inhibition analysis. The following applies: for Antibacterial activity: Table 7, C. difficile NR-13432 (isolate 6); for Clostridium difficile inhibition: Table 6, I6.
The test system of assay [9] is C. difficile NR-32891 (P13). The assay is described as follows: Clostridium difficile inhibition analysis. The note with it: for Antibacterial activity: Table 7, C. difficile NR-32891 (P13); for Clostridium difficile inhibition: Table 6, P13.
For assay [10], the system named is C. difficile NR-32904 (P30). Kind of assay: Clostridium difficile inhibition analysis. The note with it: for Antibacterial activity: Table 7, C. difficile NR-32904 (P30); for Clostridium difficile inhibition: Table 6, P30.
The test system of assay [11] is S. aureus. Kind of assay: MIC (Table 5, strain not given). The note with it: Staphylococcus aureus; S. aureus (Table 5). The method, then: as §1
In assay [12] the test system is Clostridium difficile ATCC 9689. Kind of assay: Clostridium difficile inhibition analysis. The note with it: Table 6, ATCC 9689.
In assay [13] the test system is Clostridium difficile ATCC 43255. The assay is described as follows: Clostridium difficile inhibition analysis. The following applies: for Clostridium difficile inhibition: Table 6, ATCC 43255.
The next assay deals with VRE. Kind of assay: MIC (Table 5, strain not given). The note with it: Enterococcus; VRE (Table 5). The method, then: as §1
Another assay deals with E. faecalis. Kind of assay: MIC (Table 5, strain not given). The note with it: Enterococcus faecalis; E. faecalis (Table 5). As to the method: as §1

≈ marks a conversion by molar mass, not a printed value.

Usually MIC stands for the smallest concentration in the dilution series that meets the test's criterion for growth inhibition. For the compound `CN(C)S(=O)(=O)c1ccc(C(=O)Nc2nnc(-c3ccc(F)cc3)o2)cc1` [Compound F3], the “inhibition of growth of S. aureus” value in the assay with S. aureus [1] was “significantly inhibited the growth”. For the same compound, the MIC in assay [2] amounted to 32 µg/mL (≈ 82 µM); with E. faecalis ATCC 29212, 32 µg/mL (≈ 82 µM); in the assay on S. aureus ATCC 25923, 16 µg/mL (≈ 41 µM); in [3] it was 32 µg/mL (≈ 82 µM); in the assay with MRSA ATCC 33592, 16 µg/mL (≈ 41 µM).

Consider `O=C(Nc1nnc(-c2cccs2)s1)c1ccc(S(=O)(=O)N2CCCCC2)cc1` [Compound F4], for which the “inhibition of growth of S. aureus” value in the assay with S. aureus [1] is given as “significantly inhibited the growth”. For the same compound, the MIC in assay [2] turned out to be 32 µg/mL (≈ 73.6 µM); with E. faecalis ATCC 29212, 32 µg/mL (≈ 73.6 µM); with S. aureus ATCC 25923 it was 16 µg/mL (≈ 36.8 µM); in [3], 16 µg/mL (≈ 36.8 µM); in the assay on MRSA ATCC 33592, 16 µg/mL (≈ 36.8 µM).

For `CC1CCCCN1S(=O)(=O)c1ccc(C(=O)Nc2nnc(-c3cccs3)o2)cc1` (stereo not shown) [Compound F5], the “inhibition of growth of S. aureus” value in the assay on S. aureus [1] is recorded as “significantly inhibited the growth”. Moreover, the MIC in assay [2] is 16 µg/mL (≈ 37 µM); with E. faecalis ATCC 29212 it was 16 µg/mL (≈ 37 µM); with S. aureus ATCC 25923, 8 µg/mL (≈ 18.5 µM); in assay [3], 16 µg/mL (≈ 37 µM); in the assay on MRSA ATCC 33592, 8 µg/mL (≈ 18.5 µM).

For `CC1CC(C)CN(S(=O)(=O)c2ccc(C(=O)Nc3nnc(-c4ccc(Cl)cc4)o3)cc2)C1` (stereo not shown) [Compound F6-5, N-(5-(4-Chlorophenyl)-1,3,4-oxadiazol-2-yl)-4-((3,5-dimethylpiperidin-1-yl)sulfonyl)benzamide], the “inhibition of growth of S. aureus” value with S. aureus [1] is listed as “active”. Also, the MIC in assay [2] amounted to 2 µg/mL (≈ 4.21 µM); in the assay on E. faecalis ATCC 29212 it was 4 µg/mL (≈ 8.42 µM); in the assay with S. aureus ATCC 25923, 2 µg/mL (≈ 4.21 µM); in assay [3], 2 µg/mL (≈ 4.21 µM); with MRSA ATCC 33592, 1 µg/mL (≈ 2.11 µM).

`COc1cccc(-c2nnc(NC(=O)c3ccc(S(=O)(=O)N(C)CC4CCCO4)cc3)o2)c1` (stereo not shown) [Compound G8]: in the assay on S. aureus [1], the “inhibition of growth of S. aureus” value is reported as “significantly inhibited the growth”. Moreover, the MIC (in assay [2]; with E. faecalis ATCC 29212; in the assay with S. aureus ATCC 25923; in assay [3]; with MRSA ATCC 33592) was 32 µg/mL (≈ 67.7 µM) throughout.

Turning to `CC1CC(C)CN(S(=O)(=O)c2cncc(C(=O)Nc3nnc(-c4ccc(C(F)(F)F)cc4)o3)c2)C1` (stereo not shown) [HSGN 216, 5-((3,5-dimethylpiperidin-1-yl)sulfonyl)-N-(5-(4-(trifluoromethyl)phenyl)-1,3,4-oxadiazol-2-yl)nicotinamide], the Antibacterial activity in assay [4] turned out to be 0.06; in [5] it was 0.25; in assay [6] it was 0.125; in assay [7], 0.125; in [8], 0.125; in assay [9], 0.5. For the same compound, the Antibacterial activity in assay [10] came out at 0.5.

For the compound `O=C(Nc1nnc(-c2ccc(C(F)(F)F)cc2)o1)c1ccc(S(=O)(=O)Nc2ccccc2)cc1` [HSGN-118, 4-(N-phenylsulfamoyl)-N-(5-(4-(trifluoromethyl)phenyl)-1,3,4-oxadiazol-2-yl)benzamide], the Clostridium difficile inhibition in [4] worked out at 0.5; in assay [5] it was 0.5; in [6] it was 0.5; in [7], 0.5; in assay [8] it was 0.5; in [9], 1. Also, the Clostridium difficile inhibition in assay [12], in [13] and in assay [10] was 0.5 in each case. In addition, the MIC against S. aureus [11] and with MRSA ATCC 33592 was 4 µg/mL (≈ 8.19 µM) each time.

With `C[C@@H]1C[C@H](C)CN(S(=O)(=O)c2ccc(C(=O)Nc3nnc(-c4ccnn4C)o3)cc2)C1` [HSGN-124, 4-(((3S,5R)-3,5-dimethylpiperidin-1-yl)sulfonyl)-N-(5-(1-methyl-1H-pyrazol-5-yl)-1,3,4-oxadiazol-2-yl)benzamide], the Clostridium difficile inhibition is 0.5 in assay [4]; 2 in assay [5]; 1 in assay [6]; 0.5 in assay [7]; 0.5 in assay [8]; 2 in [9]. In addition, the Clostridium difficile inhibition in assay [12] amounted to 1; in assay [13], 1; in assay [10], 2. Moreover, the MIC came to 128 µg/mL (≈ 288 µM) against VRE, 8 µg/mL (≈ 18 µM) against S. aureus [11], 16 µg/mL (≈ 36 µM) in the assay with E. faecalis and 4 µg/mL (≈ 9 µM) with MRSA ATCC 33592.

For `CN(c1ccccc1)S(=O)(=O)c1ccc(C(=O)Nc2nnc(-c3ccc(C(F)(F)F)cc3)o2)cc1` [HSGN-161, 4-(N-methyl-N-phenylsulfamoyl)-N-(5-(4-(trifluoromethyl)phenyl)-1,3,4-oxadiazol-2-yl)benzamide], the Clostridium difficile inhibition in [4] was found to be 0.5; in assay [5] it was 1; in [6], 0.5; in assay [7], 0.5; in [8] it was 0.5; in [9], 0.5. The Clostridium difficile inhibition in [12], in assay [13] and in [10] was 0.5 each time. Further, the MIC against S. aureus [11] and in the assay on MRSA ATCC 33592 was 0.25 µg/mL (≈ 0.498 µM) throughout.

Regarding `C[C@@H]1C[C@H](C)CN(S(=O)(=O)c2csc(C(=O)Nc3nnc(-c4ccc(C(F)(F)F)cc4)o3)c2)C1` [HSGN-193, 4-(((3S,5R)-3,5-dimethylpiperidin-1-yl)sulfonyl)-N-(5-(4-(trifluoromethyl)phenyl)-1,3,4-oxadiazol-2-yl)thiophene-2-carboxamide], the Antibacterial activity is given as 0.125 in [4]; 0.25 in [5]; 0.25 in [6]; 0.125 in [7]; 0.125 in assay [8]; 0.5 in assay [9]. Further, the Antibacterial activity was determined as 0.25 in assay [13] (Table 7, C. difficile ATCC 43255) and 0.5 in [10]. In addition, the MIC against S. aureus [11] stood at 0.5 µg/mL (≈ 0.972 µM); in the assay with MRSA ATCC 33592, 1 µg/mL (≈ 1.94 µM).
